# Measurements from patent publication US20080200404A1, “Novel Antimalarial 9A-Carbamoyl-Aminoalkyl and 9A-Thiocarbamoyl-Aminoalkyl Azalides” (priority 2005, published 2008).
# Like-named read-outs stand apart in the source and are kept apart here.
# Key:
# Format in all cases: cell-based
# [1] = system: Plasmodium falciparum TM91C235; test: In vitro antimalarial [3H]-hypoxanthine incorporation assay, TM91C235; settings: Plasmodium falciparum; P. falciparum TM91C235 (multiple drug resistant isolate), 72 hours exposure
# Excerpt: (§1) The in vitro screens for intrinsic antimalarial activity were based on modifications of the procedures described by Desjardins R E, Canfield C J, Haynes J D, Chulay J D. (Quantitative assessment of antimalarial activity in vitro by a semiautomated microdilution technique. Antimicrob Agents Chemother. 1979 December; 16(6):710-8.), Chulay J D, Haynes J D, Diggs C L. (Plasmodium falciparum: Assessment of in vitro growth by [3H]hypoxanthine incorporation. Exp. Parasitol. 1983 55:138-146.), and Milhous W K, Weatherly N F, Bowdre J H, Desjardins R E. (In vitro activities of and mechanisms of resistance to antifol antimalarial drugs. Antimicrob Agents Chemother. 1985 April; 27(4):525-30.). The system was limited to the assessment of the intrinsic activity against the erythrocytic asexual life cycle (blood schizontocides). Two Plasmodium falciparum clones from CDC/Indochina III (W-2) and CDC/Sierra Leone I (D-6) (Oduola A M, Weatherly N F, Bowdre J H, Desjardins R E. Plasmodium falciparum: cloning by single-erythrocyte micromanipulation and heterogeneity in vitro. Exp Parasitol. 1988 66(1):86-95.) were used for all assays. TM91C235, a multiple drug resistant isolate from Thailand, was used for the prescreening assay. W-2 is resistant to chloroquine, quinine, and pyrimethamine and susceptible to mefloquine. D-6 tends to be more resistant to mefloquine and susceptible to chloroquine, quinine, and pyrimethamine. All documents cited in this paragraph are incorporated by reference in their entirety.
# (§2) All parasites were maintained in continuous long term cultures in RPMI-1640 medium supplemented with 6% washed human A positive (A+)(erythrocytes, 25 mM Hepes, […], and 10% heat inactivated A+human plasma or ALBUMAX® (lipid-rich bovine serum albumin; Invitrogen, Carlsbad, Calif.). All cultures and assays were conducted at 37° C. under an atmosphere of 5% CO2 and 5% O2, with a balance of N2.
# The prescreening assay uses TM91C235 diluted at a 0.4% parasitemia in a 1% hematocrit in folic acid free and p-aminobenzoic acid free media RPMI-1640 and ALBUMAX®. One mg of the compound is typically dissolved in 100 μl of dimethyl sulfoxide (DMSO). The compound is further diluted in culture medium (FF) with ALBUMAX® for the first initial starting concentration. The rest of the stock drug solution was kept at −70° C. The isolate was preexposed, in duplicate, at three concentrations (25,000 ng/ml, 2,500 ng/ml, and 25 ng/ml) of the test compound for 48 hr in a 96-well microtiter plate (MTP) using the BIOMEK® 2000 automated laboratory workstation. Each MTP contains chloroquine as control to assess the relative activity of the compound and to monitor the response of TM91C235.
# (§3) After the preincubation, [^3H]-hypoxanthine was added to each well of the MTP. (The assay relies on the incorporation of radiolabeled hypoxanthine by the parasites, which indicates reproduction, and inhibition of isotope incorporation was attributed to activity of known or candidate antimalarial drugs). After 72 hr of total incubation time, the MTP were frozen to lyse the erythrocytes and parasites. The parasite DNA was recovered by harvesting the lysate onto glass-fiber filter plates using a Packard FilterMate™ Cell Harvester. The radioactivity was counted on a Packard TopCount™ microplate scintillation counter. The results were recorded as counts per minutes (CPM) per well at each drug concentration divided by the arithmetic mean of the CPM from the three untreated infection parasite control wells.
# The serial dilution assay was conducted using the same assay conditions and stock solution of the compound used for the preliminary screen, described above. Both the D-6 and the W-2 clones were used. The compounds were diluted two-fold over 11 different concentration ranges with a starting concentration that was based on the preliminary screen. […]
# [2] = system: Plasmodium falciparum clone CDC/Sierra Leone I (D-6); test: In vitro antimalarial [3H]-hypoxanthine incorporation serial dilution assay, D6; settings: Plasmodium falciparum, D6, 72 h, P. falciparum D6, 72 hours exposure
# Excerpt: as §1, §2, §3
# (§4) The serial dilution assay was conducted using the same assay conditions and stock solution of the compound used for the preliminary screen, described above. Both the D-6 and the W-2 clones were used. The compounds were diluted two-fold over 11 different concentration ranges with a starting concentration that was based on the preliminary screen. For each drug, the concentration response profile was determined and 50% inhibitory concentrations (IC50) were determined by using a non-linear, logistic dose response analysis program. […] For each assay, the IC50 for each clone was determined against the known antimalarials chloroquine and mefloquine. These control values established the compound's relative parasite susceptibility profile compared to known antimalarials. […]
# (§5) The in vitro potency of the compounds has been compared with that of azithromycin to better gauge compounds suitable for further testing. As described above, parasites were exposed for 72 hours. Data from the in vitro potency tests of azithromycin against the three parasite strains have been averaged, and these numbers have been used for identification of “active” macrolide compounds.
# [3] = system: Plasmodium falciparum clone CDC/Indochina III (W-2); test: In vitro antimalarial [3H]-hypoxanthine incorporation serial dilution assay, W2; settings: Plasmodium falciparum; P. falciparum W2, 72 hours exposure
# Excerpt: as §1, §2, §3, §4, §5
# [4] = compared with azithromycin, read-out: IC50 D6 (class symbol)
Structure (SMILES),IC50 [1] [µg/mL],IC50 ([2]; read-out: IC50 D6) [µg/mL],IC50 [3] [µg/mL],"IC50 [2, 4] [µg/mL]"
CC[C@H]1OC(=O)[C@H](C)[C@@H](O[C@H]2C[C@@](C)(OC)[C@@H](O)[C@H](C)O2)[C@H](C)[C@@H](O[C@@H]2O[C@H](C)C[C@H](N(C)C)[C@H]2O)[C@](C)(O)C[C@@H](C)CN(CCCNC(=O)Nc2ccc3c(c2)CCC3)[C@H](C)[C@@H](O)[C@]1(C)O [Example 64],0.0915,0.253,0.07,–
CC[C@H]1OC(=O)[C@H](C)[C@@H](O[C@H]2C[C@@](C)(OC)[C@@H](O)[C@H](C)O2)[C@H](C)[C@@H](O[C@@H]2O[C@H](C)C[C@H](N(C)C)[C@H]2O)[C@](C)(O)C[C@@H](C)CN(CCCNC(=O)NCc2ccc(OC)cc2)[C@H](C)[C@@H](O)[C@]1(C)O [Example 67],0.462,–,0.195,> 0.797
CC[C@H]1OC(=O)[C@H](C)[C@@H](O[C@H]2C[C@@](C)(OC)[C@@H](O)[C@H](C)O2)[C@H](C)[C@@H](O[C@@H]2O[C@H](C)C[C@H](N(C)C)[C@H]2O)[C@](C)(O)C[C@@H](C)CN(CCCNC(=O)Nc2ccc3c(c2)OCO3)[C@H](C)[C@@H](O)[C@]1(C)O [Example 68],0.254,0.798,0.106,–
CC[C@H]1OC(=O)[C@H](C)[C@@H](O[C@H]2C[C@@](C)(OC)[C@@H](O)[C@H](C)O2)[C@H](C)[C@@H](O[C@@H]2O[C@H](C)C[C@H](N(C)C)[C@H]2O)[C@](C)(O)C[C@@H](C)CN(CCCNC(=O)Nc2cc(F)cc3c2OCOC3)[C@H](C)[C@@H](O)[C@]1(C)O.O=CO [Example 82],0.227,0.293,0.316,–
CC[C@H]1OC(=O)[C@H](C)[C@@H](O[C@H]2C[C@@](C)(OC)[C@@H](O)[C@H](C)O2)[C@H](C)[C@@H](O[C@@H]2O[C@H](C)C[C@H](N(C)C)[C@H]2O)[C@](C)(O)C[C@@H](C)CN(CCCNC(=O)Nc2ccccc2-c2ccccc2)[C@H](C)[C@@H](O)[C@]1(C)O.O=CO [Example 85],0.142,0.262,0.209,–
CC[C@H]1OC(=O)[C@H](C)[C@@H](O[C@H]2C[C@@](C)(OC)[C@@H](O)[C@H](C)O2)[C@H](C)[C@@H](O[C@@H]2O[C@H](C)C[C@H](N(C)C)[C@H]2O)[C@](C)(O)C[C@@H](C)CN(CCCNC(=O)Nc2ccc(OC)c(OC3CCCC3)c2)[C@H](C)[C@@H](O)[C@]1(C)O [Example 86],0.142,0.457,0.207,–
CC[C@H]1OC(=O)[C@H](C)[C@@H](O[C@@H]2C[C@@H](C)[C@H](O)[C@](C)(OC)C2)[C@H](O)[C@@H](O[C@@H]2O[C@H](C)C[C@H](N(C)C)[C@H]2O)[C@](C)(O)C[C@@H](C)CN(CCCNC(=O)Nc2ccc(OCc3ccccc3)cc2)[C@H](C)[C@@H](O)[C@]1(C)O [Example 87],0.148,0.304,0.178,–
CC[C@H]1OC(=O)[C@H](C)[C@@H](O[C@H]2C[C@@](C)(OC)[C@@H](O)[C@H](C)O2)[C@H](C)[C@@H](O[C@@H]2O[C@H](C)C[C@H](N(C)C)[C@H]2O)[C@](C)(O)C[C@@H](C)CN(CCCNC(=O)Nc2c(C)noc2-c2ccccc2)[C@H](C)[C@@H](O)[C@]1(C)O.O=CO [Example 90],0.511,0.972,0.762,–
CC[C@H]1OC(=O)[C@H](C)[C@@H](O[C@H]2C[C@@](C)(OC)[C@@H](O)[C@H](C)O2)[C@H](C)[C@@H](O[C@@H]2O[C@H](C)C[C@H](N(C)C)[C@H]2O)[C@](C)(O)C[C@@H](C)CN(CCCNC(=O)NC2CCN(C(=O)OCc3ccccc3)CC2)[C@H](C)[C@@H](O)[C@]1(C)O.O=CO [Example 91],0.259,0.698,0.303,–
CCCCNC(=S)NCCCN1C[C@H](C)C[C@@](C)(O)[C@H](O[C@@H]2O[C@H](C)C[C@H](N(C)C)[C@H]2O)[C@@H](C)[C@H](O[C@H]2C[C@@](C)(OC)[C@@H](O)[C@H](C)O2)[C@@H](C)C(=O)O[C@H](CC)[C@@](C)(O)[C@H](O)[C@H]1C.O=CO [Example 96],0.364,0.625,0.179,–

# Continued, values first:
IC50 [1] [µg/mL],IC50 ([2]; read-out: IC50 D6) [µg/mL],IC50 [3] [µg/mL],"IC50 [2, 4] [µg/mL]",Structure (SMILES)
0.398,–,0.708,> 0.797,CC[C@H]1OC(=O)[C@H](C)[C@@H](O[C@H]2C[C@@](C)(OC)[C@@H](O)[C@H](C)O2)[C@H](C)[C@@H](O[C@@H]2O[C@H](C)C[C@H](N(C)C)[C@H]2O)[C@](C)(O)C[C@@H](C)CN(CCCNC(=O)Nc2ccc(C(C)=O)cc2)[C@H](C)[C@@H](O)[C@]1(C)O.O=CO [Example 65]
0.0746,0.214,0.0676,–,CC[C@H]1OC(=O)[C@H](C)[C@@H](O[C@H]2C[C@@](C)(OC)[C@@H](O)[C@H](C)O2)[C@H](C)[C@@H](O[C@@H]2O[C@H](C)C[C@H](N(C)C)[C@H]2O)[C@](C)(O)C[C@@H](C)CN(CCCNC(=O)Nc2ccc(C(C)C)cc2)[C@H](C)[C@@H](O)[C@]1(C)O [Example 66]
0.0863,0.164,0.0765,–,CC[C@H]1OC(=O)[C@H](C)[C@@H](O[C@H]2C[C@@](C)(OC)[C@@H](O)[C@H](C)O2)[C@H](C)[C@@H](O[C@@H]2O[C@H](C)C[C@H](N(C)C)[C@H]2O)[C@](C)(O)C[C@@H](C)CN(CCCNC(=O)Nc2ccc(C(F)(F)F)cc2)[C@H](C)[C@@H](O)[C@]1(C)O.O=CO [Example 70]
0.117,0.451,0.186,–,CC[C@H]1OC(=O)[C@H](C)[C@@H](O[C@H]2C[C@@](C)(OC)[C@@H](O)[C@H](C)O2)[C@H](C)[C@@H](O[C@@H]2O[C@H](C)C[C@H](N(C)C)[C@H]2O)[C@](C)(O)C[C@@H](C)CN(CCCNC(=O)Nc2cccc(Cl)c2)[C@H](C)[C@@H](O)[C@]1(C)O.O=CO [Example 80]
0.16,0.565,0.278,–,CC[C@H]1OC(=O)[C@H](C)[C@@H](O[C@H]2C[C@@](C)(OC)[C@@H](O)[C@H](C)O2)[C@H](C)[C@@H](O[C@@H]2O[C@H](C)C[C@H](N(C)C)[C@H]2O)[C@](C)(O)C[C@@H](C)CN(CCCNC(=O)Nc2cccc(F)c2)[C@H](C)[C@@H](O)[C@]1(C)O.O=CO [Example 81]
0.0618,0.0289,0.042,–,CC[C@H]1OC(=O)[C@H](C)[C@@H](O[C@H]2C[C@@](C)(OC)[C@@H](O)[C@H](C)O2)[C@H](C)[C@@H](O[C@@H]2O[C@H](C)C[C@H](N(C)C)[C@H]2O)[C@](C)(O)C[C@@H](C)CN(CCCNC(=O)Nc2ccc3c(c2)OCCCO3)[C@H](C)[C@@H](O)[C@]1(C)O.O=CO [Example 84]
0.33,0.371,0.319,–,CC[C@H]1OC(=O)[C@H](C)[C@@H](O[C@H]2C[C@@](C)(OC)[C@@H](O)[C@H](C)O2)[C@H](C)[C@@H](O[C@@H]2O[C@H](C)C[C@H](N(C)C)[C@H]2O)[C@](C)(O)C[C@@H](C)CN(CCCNC(=O)Nc2cc(C)oc2C(F)(F)F)[C@H](C)[C@@H](O)[C@]1(C)O.O=CO [Example 88]
